Data from US20240398784A1, “C-LINKED ISOQUINOLINE AMIDES AS LRRK2 INHIBITORS, PHARMACEUTICAL COMPOSITIONS, AND USES THEREOF” (Merck Sharp & Dohme LLC, priority 2021, published 2024).

Target: LRRK2 G2019S (Homo sapiens, UniProt Q5S007, G2019S)
Test: LRRK2 G2019S Km ATP LanthaScreen assay
Assay type: biochemical
Details: read-out: LRRK2 pIC50 (converted)
Procedure: Unless otherwise noted, all reactions are magnetically stirred. Unless otherwise noted, when diethyl ether is used in the experiments described below, it is Fisher ACS certified material and is stabilized with BHT. Unless otherwise noted, “concentrated” and/or “solvent removed under reduced pressure” means evaporating the solvent from a solution or mixture using a rotary evaporator or vacuum pump. Unless otherwise noted, flash chromatography is carried out on a Teledyne Isco (Lincoln, NE), Analogix (Burlington, WI), or Biotage (Stockholm, SWE) automated chromatography system using a commercially available cartridge as the column. Columns may be purchased from Teledyne Isco, Analogix, Biotage, Varian (Palo Alto, CA), or Supelco (Bellefonte, PA) and are usually filled with silica gel as the stationary phase. Reverse phase prep-HPLC conditions, where used, can be found at the end of each experimental section. Aqueous solutions were concentrated on a Genevac (Ipswich, ENG) or by freeze-drying/lyophilization.

Chain of LRRK2 G2019S (Q5S007 whole entry G2019S): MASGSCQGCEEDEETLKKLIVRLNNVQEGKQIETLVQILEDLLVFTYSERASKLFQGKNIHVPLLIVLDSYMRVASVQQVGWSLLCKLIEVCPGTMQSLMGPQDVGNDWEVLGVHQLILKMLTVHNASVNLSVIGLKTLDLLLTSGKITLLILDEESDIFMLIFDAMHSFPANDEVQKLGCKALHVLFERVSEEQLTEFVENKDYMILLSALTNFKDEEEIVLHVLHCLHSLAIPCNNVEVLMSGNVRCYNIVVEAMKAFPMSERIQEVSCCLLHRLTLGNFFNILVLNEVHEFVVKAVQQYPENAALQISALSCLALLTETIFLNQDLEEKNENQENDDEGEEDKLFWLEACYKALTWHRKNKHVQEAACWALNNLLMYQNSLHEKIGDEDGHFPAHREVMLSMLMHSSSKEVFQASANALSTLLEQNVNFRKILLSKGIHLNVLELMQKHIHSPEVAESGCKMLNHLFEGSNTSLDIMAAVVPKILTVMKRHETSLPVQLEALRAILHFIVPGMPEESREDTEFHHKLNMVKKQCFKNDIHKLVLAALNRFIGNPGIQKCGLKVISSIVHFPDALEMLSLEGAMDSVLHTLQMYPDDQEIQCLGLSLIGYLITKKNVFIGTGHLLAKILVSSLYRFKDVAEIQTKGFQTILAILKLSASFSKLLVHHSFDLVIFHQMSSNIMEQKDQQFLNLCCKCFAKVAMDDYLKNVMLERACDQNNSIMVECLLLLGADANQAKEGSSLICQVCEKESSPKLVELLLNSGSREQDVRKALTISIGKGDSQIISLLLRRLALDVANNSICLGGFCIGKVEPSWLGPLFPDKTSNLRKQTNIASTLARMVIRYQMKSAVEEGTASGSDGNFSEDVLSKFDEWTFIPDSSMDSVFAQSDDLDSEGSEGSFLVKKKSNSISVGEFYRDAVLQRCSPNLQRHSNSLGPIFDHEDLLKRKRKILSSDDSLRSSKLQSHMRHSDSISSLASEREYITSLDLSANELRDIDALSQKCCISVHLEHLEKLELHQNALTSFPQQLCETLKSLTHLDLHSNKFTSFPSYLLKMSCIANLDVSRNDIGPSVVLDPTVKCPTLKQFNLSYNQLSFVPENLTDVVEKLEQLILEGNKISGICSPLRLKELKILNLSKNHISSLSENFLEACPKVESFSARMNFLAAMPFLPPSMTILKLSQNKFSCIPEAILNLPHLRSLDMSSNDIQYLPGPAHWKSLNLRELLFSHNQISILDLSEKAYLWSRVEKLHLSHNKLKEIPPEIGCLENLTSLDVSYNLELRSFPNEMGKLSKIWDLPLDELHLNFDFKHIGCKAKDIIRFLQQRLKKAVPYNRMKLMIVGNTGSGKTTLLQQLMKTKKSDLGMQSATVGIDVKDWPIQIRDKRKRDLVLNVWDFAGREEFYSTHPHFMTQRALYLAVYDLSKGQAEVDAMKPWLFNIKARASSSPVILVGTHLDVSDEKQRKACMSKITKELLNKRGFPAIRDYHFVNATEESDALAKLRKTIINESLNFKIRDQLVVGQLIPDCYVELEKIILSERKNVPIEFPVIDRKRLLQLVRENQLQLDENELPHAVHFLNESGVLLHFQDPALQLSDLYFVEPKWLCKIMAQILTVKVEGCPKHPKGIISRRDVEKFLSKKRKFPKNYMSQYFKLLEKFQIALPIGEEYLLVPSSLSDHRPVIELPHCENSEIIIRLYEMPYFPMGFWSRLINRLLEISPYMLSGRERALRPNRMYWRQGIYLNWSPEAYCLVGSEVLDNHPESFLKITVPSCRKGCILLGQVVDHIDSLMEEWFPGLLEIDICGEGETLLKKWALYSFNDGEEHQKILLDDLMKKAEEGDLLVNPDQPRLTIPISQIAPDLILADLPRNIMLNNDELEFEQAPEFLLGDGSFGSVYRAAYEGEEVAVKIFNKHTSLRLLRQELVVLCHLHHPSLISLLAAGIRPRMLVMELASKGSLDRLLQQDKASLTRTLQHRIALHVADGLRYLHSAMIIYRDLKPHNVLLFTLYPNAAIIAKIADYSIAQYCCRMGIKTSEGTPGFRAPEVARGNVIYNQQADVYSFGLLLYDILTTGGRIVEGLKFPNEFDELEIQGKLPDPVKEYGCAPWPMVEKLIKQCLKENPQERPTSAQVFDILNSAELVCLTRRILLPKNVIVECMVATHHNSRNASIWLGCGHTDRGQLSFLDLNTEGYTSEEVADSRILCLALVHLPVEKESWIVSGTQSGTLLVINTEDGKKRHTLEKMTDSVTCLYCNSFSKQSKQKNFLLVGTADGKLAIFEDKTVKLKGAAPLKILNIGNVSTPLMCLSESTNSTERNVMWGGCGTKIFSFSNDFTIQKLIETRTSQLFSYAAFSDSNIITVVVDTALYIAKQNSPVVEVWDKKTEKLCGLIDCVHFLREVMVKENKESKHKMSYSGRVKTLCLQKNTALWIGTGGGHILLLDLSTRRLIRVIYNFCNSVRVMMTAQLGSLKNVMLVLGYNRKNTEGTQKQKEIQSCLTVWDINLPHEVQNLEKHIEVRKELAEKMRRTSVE

Row | IC50 [nM] | SMILES
1 | 2.63 | COC1CC(C(=O)Nc2cc3cc(C4CCN(C5COC5)CC4)c(Cl)cc3cn2)C1 (racemic) [Ex-7.9, Rac-N-(7-chloro-6-(1-(oxetan-3-yl)piperidin-4-yl)isoquinolin-3-yl)-3-methoxycyclobutane-1-carboxamide]
2 | 9.33 | O=C(Nc1cc2cc(C3CCN(C4COC4)CC3)c(Cl)cc2cn1)[C@@H]1C[C@@H](O)[C@H](F)C1 [Ex-1.12, (1R,3R,4R)-N-(7-chloro-6-(1-(oxetan-3-yl)piperidin-4-yl)isoquinolin-3-yl)-3-fluoro-4-hydroxycyclopentane-1-carboxamide]
3 | 0.363 | CC(C)(O)C1CC1C(=O)Nc1cc2cc(C3CCN(C4(C)COCC4F)CC3)c(Cl)cc2cn1 (single isomer, unassigned) [Ex-6.28, N-(7-chloro-6-(1-(4-fluoro-3-methyltetrahydrofuran-3-yl)piperidin-4-yl)isoquinolin-3-yl)-2-(2-hydroxypropan-2-yl)cyclopropane-1-carboxamide]
4 | 0.813 | CC1COCC1(C)N1CCC(c2cc3cc(NC(=O)C4CC45CCOCC5)ncc3cc2Cl)CC1 (single isomer, unassigned) [Ex-6.9, N-(7-chloro-6-(1-(3,4-dimethyltetrahydrofuran-3-yl)piperidin-4-yl)isoquinolin-3-yl)-6-oxaspiro[2.5]octane-1-carboxamide]
5 | 1.17 | CC1(N2CCC(c3cc4cc(NC(=O)C5C6CCOCC65)ncc4cc3Cl)CC2)COCC1O (single isomer, unassigned) [Ex-4.33, N-(7-chloro-6-(1-(4-hydroxy-3-methyltetrahydrofuran-3-yl)piperidin-4-yl)isoquinolin-3-yl)-3-oxabicyclo[4.1.0]heptane-7-carboxamide]
6 | 0.148 | CC1(N2CCC(c3cc4cc(NC(=O)C5CC56CC6)ncc4cc3Cl)CC2)COCC1O (single isomer, unassigned) [Ex-4.6, N-(7-chloro-6-(1-(4-hydroxy-3-methyltetrahydrofuran-3-yl)piperidin-4-yl)isoquinolin-3-yl)spiro[2.2]pentane-1-carboxamide]
7 | 3.98 | CC1C(C(=O)Nc2cc3cc(C4CCN(C5(C)COCC5O)CC4)c(Cl)cc3cn2)C1c1ccccn1 (single isomer, unassigned) [Ex-4.53, N-(7-chloro-6-(1-(4-hydroxy-3-methyltetrahydrofuran-3-yl)piperidin-4-yl)isoquinolin-3-yl)-2-methyl-3-(pyridin-2-yl)cyclopropane-1-carboxamide]
8 | 3.72 | Cc1cc2cnc(NC(=O)C3CC34CCOC4)cc2cc1C1CCN(C2(C)COCC2F)CC1 (single isomer, unassigned) [Ex-15.14, N-(6-(1-(4-fluoro-3-methyltetrahydrofuran-3-yl)piperidin-4-yl)-7-methylisoquinolin-3-yl)-5-oxaspiro[2.4]heptane-1-carboxamide]
9 | 0.562 | CC1(N2CCC(c3cc4cc(NC(=O)C5CC5C(F)F)ncc4cc3Cl)CC2)COCC1O (single isomer, unassigned) [Ex-4.44, N-(7-chloro-6-(1-(4-hydroxy-3-methyltetrahydrofuran-3-yl)piperidin-4-yl)isoquinolin-3-yl)-2-(difluoromethyl)cyclopropane-1-carboxamide]
10 | 39.8 | CC1(C)COCC1(C)N1CCC(c2cc3cc(NC(=O)C4CC45CCOCC5)ncc3cc2Cl)CC1 (single isomer, unassigned) [Ex-6.19, N-(7-chloro-6-(1-(3,4,4-trimethyltetrahydrofuran-3-yl)piperidin-4-yl)isoquinolin-3-yl)-6-oxaspiro[2.5]octane-1-carboxamide]
11 | 14.1 | N#CC1(c2ccc3cnc(NC(=O)C4CCN(C(=O)C(F)(F)F)CC4)cc3c2)CC12CC2 (single isomer, unassigned) [Ex-1.30, N-(6-((R or S)-1-cyanospiro[2.2]pentan-1-yl)isoquinolin-3-yl)-1-(2,2,2-trifluoroacetyl)piperidine-4-carboxamide]
12 | 15.5 | CCC1C(C(=O)Nc2cc3cc(C4CC45CC5)c(Cl)cc3cn2)C1c1cnn(C)c1 (stereo not drawn) [Ex-2.98]
13 | 24.5 | CC(C)(O)C1CC1C(=O)Nc1cc2cc(C3CCN(C4(C)COCC4F)CC3)c(Cl)cc2cn1 (single isomer, unassigned) [Ex-6.29, N-(7-chloro-6-(1-(4-fluoro-3-methyltetrahydrofuran-3-yl)piperidin-4-yl)isoquinolin-3-yl)-2-(2-hydroxypropan-2-yl)cyclopropane-1-carboxamide]
14 | 47.9 | Cc1cc2cnc(NC(=O)C3CC34CCOCC4)cc2cc1C1CCN(C2(C)COCC2C)CC1 (single isomer, unassigned) [Ex-15.3, N-(6-(1-(3,4-dimethyltetrahydrofuran-3-yl)piperidin-4-yl)-7-methylisoquinolin-3-yl)-6-oxaspiro[2.5]octane-1-carboxamide]
15 | 6.46 | CC1(N2CCC(c3cc4cc(NC(=O)C5CC56CCOCC6)ncc4cc3Cl)CC2)CCOCC1F (single isomer, unassigned) [Ex-12.2, N-(7-chloro-6-(1-((3R,4R or 3S,4S)-3-fluoro-4-methyltetrahydro-2H-pyran-4-yl)piperidin-4-yl)isoquinolin-3-yl)-6-oxaspiro[2.5]octane-1-carboxamide]
16 | 0.562 | CC1(N2CCC(c3cc4cc(NC(=O)C5CC5c5cncnc5)ncc4cc3Cl)CC2)COCC1O (single isomer, unassigned) [Ex-4.36, N-(7-chloro-6-(1-(4-hydroxy-3-methyltetrahydrofuran-3-yl)piperidin-4-yl)isoquinolin-3-yl)-2-(pyrimidin-5-yl)cyclopropane-1-carboxamide]
17 | 24 | CC1(C)CC1(C#N)c1ccc2cnc(NC(=O)C3CC3)cc2c1 (single isomer, unassigned) [Ex-18.3, (R or S)-N-(6-(1-cyano-2,2-dimethylcyclopropyl)isoquinolin-3-yl)cyclopropanecarboxamide]
18 | 4.57 | CC1CC1(C#N)c1ccc2cnc(NC(=O)C3CC3)cc2c1 (single isomer, unassigned) [Ex-18.7, (R or S)-N-(6-(1-cyano-2-methylcyclopropyl)isoquinolin-3-yl)cyclopropanecarboxamide]
19 | 2 | CC(C)(F)C1CC1C(=O)Nc1cc2cc(C3CCN(C4(C)COCC4O)CC3)c(Cl)cc2cn1 (single isomer, unassigned) [Ex-4.47, N-(7-chloro-6-(1-(4-hydroxy-3-methyltetrahydrofuran-3-yl)piperidin-4-yl)isoquinolin-3-yl)-2-(2-fluoropropan-2-yl)cyclopropane-1-carboxamide]
20 | 4.47 | CC(C)(O)C1CC1C(=O)Nc1cc2cc(C3CCN(C4(C)COC4)CC3)c(Cl)cc2cn1 (single isomer, unassigned) [Ex-22.1, (1R,2R or 1S,2S)-N-(7-chloro-6-(1-(3-methyloxetan-3-yl)piperidin-4-yl)isoquinolin-3-yl)-2-(2-hydroxypropan-2-yl)cyclopropanecarboxamide]
21 | 6.92 | CCC1C(C(=O)Nc2cc3cc(C(C)COC)c(Cl)cc3cn2)C1c1cnn(C)c1 (single isomer, unassigned) [Ex-9.13, N-(7-chloro-6-(1-methoxypropan-2-yl)isoquinolin-3-yl)-2-ethyl-3-(1-methyl-1H-pyrazol-4-yl)cyclopropane-1-carboxamide]
